Results taken from ChEMBL document CHEMBL1138274, “Discovery of potent and selective adamantane-based small-molecule P2X(7) receptor antagonists/interleukin-1beta inhibitors” (J Med Chem, 2007).
Calls of active or inactive are those of the source. The calls are words filed in the database; no cut-off is given here.

Tests used:
[1] = biological target: T1, P2X purinoceptor 7 (Homo sapiens, UniProt Q99572); experiment: Antagonist activity at human P2X7 receptor transfected in THP1 cells assessed as inhibition of benzoyl-ATP-induced changes in plasma membrane pore formation; assay type: functional, cell-based, THP-1; details: read-out: pA2 (converted)
T1 sequence (Q99572 whole entry): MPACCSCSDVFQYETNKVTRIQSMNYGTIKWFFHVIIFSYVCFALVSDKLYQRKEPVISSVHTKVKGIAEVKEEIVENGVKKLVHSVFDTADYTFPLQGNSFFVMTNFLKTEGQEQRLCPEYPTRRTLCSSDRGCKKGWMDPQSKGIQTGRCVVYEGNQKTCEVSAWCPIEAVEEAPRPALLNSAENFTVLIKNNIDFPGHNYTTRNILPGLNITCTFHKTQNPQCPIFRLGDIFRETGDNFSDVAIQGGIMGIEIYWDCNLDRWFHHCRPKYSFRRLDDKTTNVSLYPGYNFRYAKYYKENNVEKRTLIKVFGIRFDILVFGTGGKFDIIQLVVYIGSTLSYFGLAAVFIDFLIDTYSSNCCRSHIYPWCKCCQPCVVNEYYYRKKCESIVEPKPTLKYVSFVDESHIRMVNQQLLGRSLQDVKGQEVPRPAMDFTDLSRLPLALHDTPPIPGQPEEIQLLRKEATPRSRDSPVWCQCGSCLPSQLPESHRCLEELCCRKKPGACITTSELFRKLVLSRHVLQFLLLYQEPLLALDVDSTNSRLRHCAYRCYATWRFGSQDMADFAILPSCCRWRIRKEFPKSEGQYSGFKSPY

[2] = biological target: T2, P2X purinoceptor 7 (Rattus norvegicus, UniProt Q64663); experiment: Antagonist activity at rat P2X7 receptor transfected in HEK cells assessed as inhibition of benzoyl-ATP-induced changes in plasma membrane pore formation; assay type: functional, cell-based, HEK293; details: for Kb: read-out: pA2 (converted)
T2 sequence (Q64663 whole entry): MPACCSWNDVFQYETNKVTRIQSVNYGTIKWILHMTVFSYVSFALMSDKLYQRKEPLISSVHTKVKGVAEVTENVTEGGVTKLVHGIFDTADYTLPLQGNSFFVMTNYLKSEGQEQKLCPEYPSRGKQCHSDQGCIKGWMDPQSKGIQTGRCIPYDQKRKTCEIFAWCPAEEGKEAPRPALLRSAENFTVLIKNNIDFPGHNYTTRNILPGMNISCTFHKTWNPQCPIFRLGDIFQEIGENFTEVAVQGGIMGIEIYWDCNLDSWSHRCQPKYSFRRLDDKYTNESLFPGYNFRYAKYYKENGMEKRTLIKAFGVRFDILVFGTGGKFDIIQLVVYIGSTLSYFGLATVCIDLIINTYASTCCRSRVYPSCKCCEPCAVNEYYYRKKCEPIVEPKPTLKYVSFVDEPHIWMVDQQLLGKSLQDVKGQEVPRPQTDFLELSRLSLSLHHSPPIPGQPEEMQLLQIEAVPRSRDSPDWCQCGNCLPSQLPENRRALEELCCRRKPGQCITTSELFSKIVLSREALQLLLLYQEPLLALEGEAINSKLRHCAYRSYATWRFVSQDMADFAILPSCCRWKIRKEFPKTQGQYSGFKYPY

[3] = biological target: Vasopressin V1a receptor (Homo sapiens, UniProt P37288); experiment: Activity at vasopressin V1A receptor
[4] = Activity at sigma receptor; set-up: species or system Homo sapiens
[5] = biological target: T3, P2X purinoceptor 3 (Homo sapiens) (UniProt P56373); experiment: Activity at human P2X3 receptor at 10 uM
T3 sequence (whole entry): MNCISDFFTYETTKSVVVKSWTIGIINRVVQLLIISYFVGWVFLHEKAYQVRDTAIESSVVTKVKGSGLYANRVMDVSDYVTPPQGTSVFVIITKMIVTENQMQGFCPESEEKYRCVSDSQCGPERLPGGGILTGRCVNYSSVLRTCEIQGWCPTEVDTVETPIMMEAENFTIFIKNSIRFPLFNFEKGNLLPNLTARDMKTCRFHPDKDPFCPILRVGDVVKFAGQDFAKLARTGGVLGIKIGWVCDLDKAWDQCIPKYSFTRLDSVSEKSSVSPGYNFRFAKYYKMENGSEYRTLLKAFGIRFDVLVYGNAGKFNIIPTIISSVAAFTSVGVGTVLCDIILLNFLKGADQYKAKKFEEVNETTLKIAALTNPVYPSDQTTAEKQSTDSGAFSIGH

[6] = biological target: T4, P2X purinoceptor 4 (Homo sapiens) (UniProt Q99571); experiment: Activity at human P2X4 receptor at 10 uM
T4 sequence (whole entry): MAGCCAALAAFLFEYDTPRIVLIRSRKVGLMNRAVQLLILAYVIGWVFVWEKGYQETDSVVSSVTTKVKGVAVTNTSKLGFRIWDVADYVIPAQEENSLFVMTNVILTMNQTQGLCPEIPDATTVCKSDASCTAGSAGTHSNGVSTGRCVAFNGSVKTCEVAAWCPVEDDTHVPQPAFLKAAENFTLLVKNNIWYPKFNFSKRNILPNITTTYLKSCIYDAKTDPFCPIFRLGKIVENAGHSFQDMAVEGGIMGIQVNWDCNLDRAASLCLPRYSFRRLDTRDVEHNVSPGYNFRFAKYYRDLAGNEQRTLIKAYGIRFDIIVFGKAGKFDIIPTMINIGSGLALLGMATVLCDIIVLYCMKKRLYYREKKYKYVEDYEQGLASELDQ

[7] = biological target: P2X purinoceptor 5 (Homo sapiens) (UniProt Q93086); experiment: Activity at human P2X5 receptor at 10 uM
[8] = biological target: T5, P2X purinoceptor 2 (Rattus norvegicus) (UniProt P49653); experiment: Activity at rat P2X2 receptor at 10 uM
T5 sequence (whole entry): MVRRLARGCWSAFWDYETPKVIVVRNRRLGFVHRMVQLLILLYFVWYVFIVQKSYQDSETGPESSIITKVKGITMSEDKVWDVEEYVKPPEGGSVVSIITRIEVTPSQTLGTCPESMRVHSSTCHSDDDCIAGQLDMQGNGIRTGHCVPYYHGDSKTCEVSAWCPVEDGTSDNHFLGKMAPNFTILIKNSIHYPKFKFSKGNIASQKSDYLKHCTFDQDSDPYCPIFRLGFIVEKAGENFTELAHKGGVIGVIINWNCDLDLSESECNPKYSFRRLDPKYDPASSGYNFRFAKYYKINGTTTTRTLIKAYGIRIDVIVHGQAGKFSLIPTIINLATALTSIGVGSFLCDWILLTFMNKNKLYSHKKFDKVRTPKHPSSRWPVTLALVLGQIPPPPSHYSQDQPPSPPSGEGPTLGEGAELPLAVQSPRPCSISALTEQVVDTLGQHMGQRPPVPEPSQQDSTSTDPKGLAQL

[9] = species: Rattus norvegicus; experiment: Activity at rat P2X2/3 heteromeric receptor at 10 uM
[10] = tested on: Monocyte; experiment: Inhibition of BzATP-induced IL1-beta release from LPS-primed human monocytes by ELISA; assay type: functional, cell-based
[11] = tested on: Monocyte; experiment: Inhibition of BzATP-induced IL18 release from LPS-primed human monocytes by ELISA; assay type: functional, cell-based
[12] = tested on: Hepatocyte; experiment: Intrinsic clearance in human hepatocytes; assay type: ADME, cell-based, Liver
[13] = tested on: Hepatocyte; experiment: Intrinsic clearance in rat hepatocytes; assay type: ADME, cell-based, Liver
[14] = Clearance in Sprague-Dawley rat; assay type: ADME, organism-based; details: in vivo
[15] = Volume of distribution at steady state in Sprague-Dawley rat; assay type: ADME, organism-based; details: in vivo, read-out: Vdss
[16] = Half life in Sprague-Dawley rat; assay type: ADME, organism-based; details: in vivo
[17] = Bioavailability in Sprague-Dawley rat; assay type: ADME, organism-based; details: in vivo
[18] = Protein binding in rat plasma; assay type: ADME, cell-free; details: read-out: PPB (converted)
[19] = biological target: T6, P2X purinoceptor 1 (Homo sapiens) (UniProt P51575); experiment: Activity at human P2X1 receptor at 10 uM
T6 sequence (whole entry): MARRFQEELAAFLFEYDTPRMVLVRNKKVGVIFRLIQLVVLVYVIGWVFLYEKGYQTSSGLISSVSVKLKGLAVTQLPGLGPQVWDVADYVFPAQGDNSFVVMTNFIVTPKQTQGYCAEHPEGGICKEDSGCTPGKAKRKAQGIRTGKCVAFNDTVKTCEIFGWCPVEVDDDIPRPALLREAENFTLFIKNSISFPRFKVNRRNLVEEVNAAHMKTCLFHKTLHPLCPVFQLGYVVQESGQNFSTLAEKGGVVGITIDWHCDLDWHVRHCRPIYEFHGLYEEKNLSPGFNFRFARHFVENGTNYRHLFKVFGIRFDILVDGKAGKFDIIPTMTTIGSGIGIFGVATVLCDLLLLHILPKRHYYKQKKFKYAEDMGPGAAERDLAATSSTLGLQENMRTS

Sequence of P2X purinoceptor 5 (Homo sapiens) (Q93086 whole entry): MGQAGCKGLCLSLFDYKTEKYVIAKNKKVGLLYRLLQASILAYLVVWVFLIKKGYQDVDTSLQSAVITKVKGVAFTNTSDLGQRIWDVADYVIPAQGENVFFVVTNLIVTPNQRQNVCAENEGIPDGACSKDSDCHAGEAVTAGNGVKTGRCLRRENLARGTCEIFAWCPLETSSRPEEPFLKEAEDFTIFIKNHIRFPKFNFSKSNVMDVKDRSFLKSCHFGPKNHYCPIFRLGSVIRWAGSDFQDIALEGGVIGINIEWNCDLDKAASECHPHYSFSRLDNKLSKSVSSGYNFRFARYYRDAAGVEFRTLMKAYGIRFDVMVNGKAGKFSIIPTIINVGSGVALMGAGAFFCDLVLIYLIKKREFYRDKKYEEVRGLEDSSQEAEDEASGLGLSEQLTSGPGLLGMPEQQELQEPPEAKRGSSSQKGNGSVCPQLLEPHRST
Sequence of Vasopressin V1a receptor (P37288 whole entry): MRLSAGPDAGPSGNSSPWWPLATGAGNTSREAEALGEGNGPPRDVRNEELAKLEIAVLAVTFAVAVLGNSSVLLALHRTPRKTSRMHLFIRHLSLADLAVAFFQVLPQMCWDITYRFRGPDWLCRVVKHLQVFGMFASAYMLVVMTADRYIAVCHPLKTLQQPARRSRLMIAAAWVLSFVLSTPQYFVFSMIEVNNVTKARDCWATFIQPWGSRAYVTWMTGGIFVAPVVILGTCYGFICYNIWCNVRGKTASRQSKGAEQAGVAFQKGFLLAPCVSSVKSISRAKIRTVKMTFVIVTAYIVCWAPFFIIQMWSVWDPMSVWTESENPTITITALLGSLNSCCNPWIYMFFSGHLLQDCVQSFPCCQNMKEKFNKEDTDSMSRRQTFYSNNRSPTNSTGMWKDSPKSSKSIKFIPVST

| SMILES | Kb [1] [nM] | IC50 ([2]; read-out: Log IC50 (converted)) [nM] | further results |
| --- | --- | --- | --- |
| O=C(NCC12CC3CC(CC(C3)C1)C2)c1cc(CN2C[C@@H]3C[C@H]2CN3)ccc1Cl | 5.01 | 251 |  |
| O=C(NCC12CC3CC(CC(C3)C1)C2)c1c(Cl)cccc1OC1CCNCC1 | > 10000 | > 10000 |  |
| O=C(NCC12CC3CC(CC(C3)C1)C2)c1cc(CC2CCNCC2)ccc1Cl | 15.8 | 63.1 |  |
| O=C(NCC12CC3CC(CC(C3)C1)C2)c1cc(NC2CCNCC2)ccc1Cl | 25.1 | 501 |  |
| Cc1sc(CN2CCNCC2)cc1C(=O)NCC12CC3CC(CC(C3)C1)C2 | 316 | > 10000 |  |
| O=C(NCC12CC3CC(CC(C3)C1)C2)c1cccc(CN2CCCCC2)c1Cl | 200 | > 10000 |  |
| O=C(NCC12CC3CC(CC(C3)C1)C2)c1ccc(CN2CCCCC2)cc1Cl | 126 | 794 |  |
| Cc1nnc(OC2CCNCC2)cc1C(=O)NCC12CC3CC(CC(C3)C1)C2 | 1580 | 794 |  |
| O=C(NCC12CC3CC(CC(C3)C1)C2)c1cc(CN2CC3CNCC(C2)O3)ccc1Cl |  |  | Kb [2]: 25.1 nM |
| O=C(NCC12CC3CC(CC(C3)C1)C2)c1cc(C(=O)N2CC3CNCC(C2)O3)ccc1Cl |  |  | IC50 [3]: 7000 nM; IC50 [4]: 4000 nM; Activity [5]: inactive; Activity [6]: inactive; Activity [7]: inactive; Activity [8]: inactive; Activity [9]: inactive |
| O=C(NCC12CC3CC(CC(C3)C1)C2)c1nc(OC2CCCNC2)ncc1Cl (centres undefined) | 251 | 316 |  |
| O=C(NCC12CC3CC(CC(C3)C1)C2)c1cc(CN2CCNCC2)ccc1Cl | 10 | 398 | IC50 [10]: 79.4 nM; IC50 [11]: 39.8 nM; CL [12]: < 3 µL/min; CL [13]: < 5 µL/min; clearance [14]: 13 mL/min/kg; Vd [15]: 5.31 L/kg; half-life [16]: 5.2 h; bioavailability [17]: 79% |
| O=C(NCC12CC3CC(CC(C3)C1)C2)c1cc(CC2CCCNC2)ccc1Cl (racemic) | 6.31 |  | IC50 ([2]; read-out: IC50): 30 nM |
| O=C(NCC12CC3CC(CC(C3)C1)C2)c1cc(O[C@H]2CCCNC2)ccc1Cl | 10 | 100 |  |
| Cc1oc(CN2CCNCC2)cc1C(=O)NCC12CC3CC(CC(C3)C1)C2 | > 10000 | > 10000 | Activity [10]: inactive; Activity [11]: Active |
| O=C(NCC12CC3CC(CC(C3)C1)C2)c1cc(NC2CCCNC2)ccc1Cl (racemic) | 5.01 |  | IC50 ([2]; read-out: IC50): 30 nM |
| O=C(NCC12CC3CC(CC(C3)C1)C2)c1cc(O[C@@H]2CCCNC2)ccc1Cl | 6.31 | 316 |  |
| Cc1ccc(C(=O)N2CC3CNCC(C2)O3)cc1C(=O)NCC12CC3CC(CC(C3)C1)C2 |  |  | Kb [2]: 15.8 nM; fraction unbound [18]: 0.34; IC50 [3]: 7000 nM; IC50 [4]: 4000 nM; Activity [19]: inactive; Activity [5]: inactive; Activity [6]: inactive; Activity [7]: inactive; Activity [8]: inactive; Activity [9]: inactive |
| O=C(NCC12CC3CC(CC(C3)C1)C2)c1cc(N2CCNCC2)ccc1Cl | 31.6 | 1260 |  |
| O=C(NCC12CC3CC(CC(C3)C1)C2)c1cc(OC2CCNCC2)ccc1Cl | 15.8 | 631 |  |
| O=C(NCC12CC3CC(CC(C3)C1)C2)c1cc(C2CCNCC2)ccc1Cl | 15.8 | 316 |  |
